Results on two compounds are retold here after publication PMC7613620, “Reaction hijacking of tyrosine tRNA synthetase as a whole-of-life-cycle antimalarial strategy” (Science (New York, N.Y.), 2022).

One may read the IC50 as the point on the concentration scale where inhibition reaches its midpoint. Usually Kd stands for a measure of binding affinity in units of concentration. High values mean lower affinity, low ones higher affinity.

For assay [1], the target named is T1, PfYRS (Plasmodium falciparum, UniProt Q8IAR7). The assay is described as follows: Tyrosine acylation of cognate tRNATyr by PfYRS. Format: biochemical.
In the next assay the target is T2, HsYRS (Homo sapiens, UniProt P54577).
T2 construct: made in house; host or cells: E. coli BL21(DE3), pET-11a
T2 sequence (P54577 1-364): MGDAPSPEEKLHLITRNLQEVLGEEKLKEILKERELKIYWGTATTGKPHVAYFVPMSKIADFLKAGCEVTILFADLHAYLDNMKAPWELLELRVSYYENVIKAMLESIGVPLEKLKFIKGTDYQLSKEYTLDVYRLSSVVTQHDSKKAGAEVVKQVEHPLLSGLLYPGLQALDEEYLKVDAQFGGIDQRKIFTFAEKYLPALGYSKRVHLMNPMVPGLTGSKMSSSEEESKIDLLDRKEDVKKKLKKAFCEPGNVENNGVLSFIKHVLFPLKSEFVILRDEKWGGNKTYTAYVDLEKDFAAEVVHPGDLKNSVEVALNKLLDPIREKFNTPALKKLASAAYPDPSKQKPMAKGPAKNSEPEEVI
Kind of assay: Tyrosine acylation of cognate tRNATyr by HsYRS. Format: biochemical. As to conditions: YRS 0.25 μM, ATP 10 μM, 37°C 1 h.

Assay [2] deals with T1, PfYRS. The assay is described as follows: biochemical. Format: binding. As to the method: (§1) 804 An intron was detected in the PftRNATyr sequence, that was not indicated in PlasmoDB. A T7 RNA
(§2) 805 polymerase promoter sequence was added to the 5’ end of the DNA sequence of P. falciparum and H.
(§3) 806 sapiens tRNATyr. This DNA template and its complementary strand were custom-synthesized by Sigma-
(§4) 807 Aldrich. Two oligonucleotides were annealed at 95°C for 5 min and the double-stranded DNA template
(§5) 808 was used for in vitro transcription. The transcription reaction was incubated at 37°C overnight. The reaction
(§6) 809 mixture consists of template DNA, T7 RNA polymerase and NTP mix as per manufacturer's instructions
(§7) 810 (HiScribe™ T7 Quick High Yield RNA Synthesis Kit, NEB). On the following day, the reaction mixture
(§8) 811 was treated with DNase I at 37°C for 15 min. tRNA was purified using RNA clean-up spin columns
(§9) 812 (Monarch® RNA Cleanup Kit, NEB) to remove contaminants from the transcription reaction.
(§10) 814 Differential scanning fluorimetry (DSF)
(§11) 815 PfYRS and HsYRS at 0.1 mg/ml were incubated with various substrates at 37°C for 1-3 h. PfYRS was
(§12) 816 assayed in 25 mM Tris, pH 8, 150 mM NaCl, 5 mM MgCl2 and 1 mM TCEP. HsYRS was assayed in 50
(§13) 817 mM Tris, pH 7.5, 150 mM NaCl, 50 mM KCl, 5 mM MgCl2 and 1 mM TCEP. SYPRO Orange (Sigma-
(§14) 818 Aldrich; 5,000X concentrate in DMSO) was added to the reaction mixture at a final concentration of 2.5X.
(§15) 819 25 µL of the sample was added into each well of a 96-well qPCR plate (Applied Biosystems). The plate
(§16) 820 was sealed and analysed using StepOnePlus Real-Time PCR system (Applied Biosystems). The samples
(§17) 821 were heated from 20°C to 90°C with a 1% continuous gradient. The thermal unfolding curve was plotted
(§18) 822 as the first derivative curve of the raw fluorescence values. The melting temperature (Tm), defined as the
(§19) 823 peak of the first derivative curve, was used to assess the thermal stability of protein-ligand complexes. KD
(§20) 824 values were calculated from DTm using the equation: ln(KD/[L]) = -131.5 x (∆Tm/Tm,apo) - 1.9, where [L]
(§21) 825 is the concentration of ligand and T is the temperature in Kelvin (40). […]

A further assay deals with PfYRSS234C (Plasmodium falciparum, UniProt Q8IAR7, S234C). The assay is described as follows: biochemical. Format: binding. As to the method: as §1, §2, §3, §4, §5, §6, §7, §8, §9, §10, §11, §12, §13, §14, §15, §16, §17, §18, §19, §20, §21
The test system of another assay is P. falciparum (3D7). The assay is described as follows: P. falciparum (3D7) culture growth inhibition, 72 h. The conditions noted are these: Plasmodium falciparum, 3D7, 72 h, read-out: Pf3D7 IC50(72h). Format: cell-based, Plasmodium falciparum. Here is the method:
(1 picture or pasted object on this page, not shown here)
553 Sigma-Aldrich) for 48-72 h. For drug pulse assays, tightly synchronized parasites (1-1.5% parasitemia,
554 0.2% final hematocrit) were added to the plates and incubated for 3 h. Drugs were removed and the
555 parasitemia assessed in the trophozoite stage of the next cycle.
557 Compounds were tested against a range of drug resistant field isolates and laboratory strains using a
558 modified [3H]-hypoxanthine incorporation assay, as previously reported (46). Field isolates 7G8, Cam3.1,
559 Dd2, K1, TM90C2B and NF54 were obtained from MR4 (www.beiresources.org).
561 Mammalian cell culture experiments
562 The HepG2 (Human hepatocyte carcinoma) cell line was procured from ATCC (American Type
563 Culture Collection, Manassas, USA; HB-8065) and viability assessed using Cell Titer-GLO luminescent
564 cell viability assay reagents (Promega, catalogue number: G7570) (47, 48). For the assay, 2000 cells/well
565 were plated in 384-well plates 24 h prior to the experiment and incubated at 37°C in a CO2 incubator. The
566 medium was removed and cells were treated with fresh medium containing either vehicle (0.5% DMSO)
567 or serially diluted test compounds or doxorubicin (1.3 nM to 25 µM) in a final volume of 50 µl/well and
568 further incubated for 72 h at 37°C in a CO2 incubator.
569 were treated with 5 µl of 1% Triton X-100 (final assay conc. 0.1%). Following incubation, 25 µl of medium
570 was discarded and 25 µl of Cell Titer-GLO reagent was added to each well and the plate was kept on a plate
571 shaker for 15 min at 25°C with shaking at 300 rpm. Luminescence signals were measured in a Spectramax
572 M5 reader (Molecular Devices).
(§22) 574 H1650 is a human lung cancer derived ATG7-null cell line (49) that can be used to assess effects on targets
(§23) 576 adenocarcinoma; bronchoalveolar carcinoma). Other cells lines used are: H460 (NCI-H460; human lung;
(§24) 577 carcinoma; large cell lung cancer; ATCC: HTB-177); and HCT116 (human colon; colorectal carcinoma;
(§25) 578 ATCC: CCL-247; Lot : 5056139). Each of the cell lines was received from the American Type Culture
(§26) 579 Collection (ATCC) and passaged twice before freezing. Cells were cultured in the presence or absence of
(§27) 580 inhibitors and cell viability was assessed by comparing the ATP content in compound-treated wells with
581 that in DMSO-treated wells as previously described (11).
583 HeLa cells (human cervical adenocarcinoma; genome sequenced (Garvin Institute, Australia) and verified

For a further assay, the system named is H1650. Kind of assay: H1650 cell viability (ATP content). Format: cell-based. As to conditions: Homo sapiens, NCI-H1650, 72 h, read-out: H1650 IC50(72h). Here is the method:
as §22, §23, §24, §25, §26, §27
(§28) 581 that in DMSO-treated wells as previously described (11). […]
(§29) 585 37°C humidified incubator as adherent semi-confluent monolayers in complete Dulbecco’s Modified Eagle
(§30) 586 Media (c-DMEM). DMEM (Gibco™, Thermo Fisher Scientific, Australia) was supplemented with 10%

Another assay deals with H460. Kind of assay: H460 cell viability (ATP content). Format: cell-based. As to conditions: Homo sapiens, NCI-H460, 72 h, read-out: H460 IC50(72h). Here is the method: as §22, §23, §24, §25, §26, §27, §28, §29, §30
The subject of a further assay is HCT116. Kind of assay: HCT116 cell viability (ATP content). Format: cell-based. As to conditions: Homo sapiens, HCT-116, 72 h, read-out: HCT116 IC50(72h). As to the method: as §22, §23, §24, §25, §26, §27, §28, §29, §30
For assay [3], the system named is eIF2α phosphorylation in P. falciparum. Kind of assay: Western blot for phosphorylated-eIF2α. Format: cell-based, Plasmodium falciparum. The conditions noted are these: wildtype P. falciparum cultures. As to the method: Synchronous ring-stage YRScyt conditional knockdown line and the aptamer-regulatable control
700 the drug plate. Lowest drug treatment and a lethal dose of chloroquine (200 nM) served as reference
Two guide RNAs (gRNA1: […] and gRNA2:
Ring-stage P. falciparum parasites (Dd2 strain) at 10%
Using a modification of a published procedure (14), the
722 cells were labelled with O-propargyl-puromycin (OPP; 4 µM) for 1 h, washed 3x (PBS +3% serum) and
Flow cytometry was performed
730 hematocrit and 5% parasitemia. The RBC pellet was washed 3 x in PBS + cOmplete. Cells were centrifuged
The wash with PBS + cOmplete and
The pellet was resuspended in Bolt LDS sample
The samples were vortexed for 10 min at room temperature.
Secondary antibodies: goat
740 anti-rabbit IgG-peroxidase (Sigma-Aldrich-A0545; 1:20 000), goat anti-mouse IgG-peroxidase (Chemicon-
Chemiluminescence was detected using the Bio-Rad ChemiDocTM MP imaging
For the human mature YRS construct,
The YRS sequences were codon optimized for E. coli,
The vector was transformed into
PfYRS, PfYRSS234C and HsYRS were induced
Cell pellets were resuspended in 40 mL lysis
Cells were lysed by sonication (Microtip, QSonica)
The supernatant was applied to a 5
757 mL HisTrap HP column (GE Healthcare) and washed with 50 mL binding buffer containing 50 mM Tris-
His-YRS was eluted using a 0-500 mM
The eluted His-YRS was dialyzed overnight at 4°C
760 against 50 mM Tris-HCl, pH 8, 500 mM NaCl, 30 mM imidazole, 1 mM TCEP with the addition of His-
Cleaved His tags from His-YRS and TEV
YRS was further purified by gel filtration using a HiLoad 16/600 Superdex 200 column (GE
Background: Immunoblotting shows a protein as a band on a membrane.

T1 sequence (Q8IAR7 entry or part of it): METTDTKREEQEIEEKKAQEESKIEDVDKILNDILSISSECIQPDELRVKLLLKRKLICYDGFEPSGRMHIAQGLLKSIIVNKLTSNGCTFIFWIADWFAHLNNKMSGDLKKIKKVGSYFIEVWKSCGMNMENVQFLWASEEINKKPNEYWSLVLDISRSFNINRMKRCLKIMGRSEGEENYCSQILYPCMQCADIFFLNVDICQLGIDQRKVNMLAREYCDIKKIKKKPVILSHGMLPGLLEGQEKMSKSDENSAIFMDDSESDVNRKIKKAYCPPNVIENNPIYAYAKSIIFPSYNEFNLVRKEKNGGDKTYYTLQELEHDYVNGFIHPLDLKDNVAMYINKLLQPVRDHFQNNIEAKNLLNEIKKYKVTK
Sequence of PfYRSS234C (Q8IAR7 whole entry S234C): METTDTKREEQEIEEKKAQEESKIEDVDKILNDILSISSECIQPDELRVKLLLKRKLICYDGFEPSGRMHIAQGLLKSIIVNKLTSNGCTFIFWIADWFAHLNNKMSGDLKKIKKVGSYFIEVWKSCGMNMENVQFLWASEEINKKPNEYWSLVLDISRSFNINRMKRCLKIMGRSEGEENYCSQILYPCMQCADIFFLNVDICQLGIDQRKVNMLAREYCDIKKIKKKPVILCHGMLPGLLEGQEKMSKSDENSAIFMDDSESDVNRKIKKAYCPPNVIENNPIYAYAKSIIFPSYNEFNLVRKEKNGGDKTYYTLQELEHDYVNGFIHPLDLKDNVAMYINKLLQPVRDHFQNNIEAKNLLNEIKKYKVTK

In the case of `Nc1ncnc2c1c(OC(F)F)nn2C1OC(COS(=O)(=O)NC(=O)C(N)Cc2ccc(O)cc2)C(O)C1O` (stereo not drawn) [ML901-Tyr], the IC50 at PfYRS [1] came out at 1.6 µM; at HsYRS it was 23 µM. Moreover, the equilibrium dissociation constant (Kd) at PfYRS [2] worked out at 0.0007 µM; at PfYRSS234C, 0.0039 µM. In addition, the Tm on PfYRS [2] (PfYRS 2.3 μM, after incubation at 37°C for 3 h) stood at 65.1 ± 0.1 oC; at PfYRSS234C (PfYRSS234C 2.3 μM, after incubation at 37°C for 3 h) it was 59.7 ± 0.3 oC. This compound also registered a DTm at PfYRS [2] (PfYRS, versus apo) of 14.9 oC.
Take `Nc1ncnc2c1ncn2[C@@H]1O[C@H](COS(N)(=O)=O)[C@@H](O)[C@H]1O` [AMS, adenosine 5′-sulfamate, reference compound]: the IC50 turned out to be 0.0018 µM in the assay on P. falciparum (3D7), 0.14 µM in the assay on H1650, 0.025 ± 0.007 µM with H460 and 0.026 µM in the assay with HCT116. Moreover, the eIF2α phosphorylation result in assay [3] was “triggers eIF2α phosphorylation”.
